Results on eleven compounds are retold here after patent US11548875B2, “Inhibitor compounds for male contraception” (University of Washington, priority 2018, dated 2023).

One assay has as its target T1, ALDH1A1 (Homo sapiens, UniProt P00352).
T1 sequence (P00352 1-501): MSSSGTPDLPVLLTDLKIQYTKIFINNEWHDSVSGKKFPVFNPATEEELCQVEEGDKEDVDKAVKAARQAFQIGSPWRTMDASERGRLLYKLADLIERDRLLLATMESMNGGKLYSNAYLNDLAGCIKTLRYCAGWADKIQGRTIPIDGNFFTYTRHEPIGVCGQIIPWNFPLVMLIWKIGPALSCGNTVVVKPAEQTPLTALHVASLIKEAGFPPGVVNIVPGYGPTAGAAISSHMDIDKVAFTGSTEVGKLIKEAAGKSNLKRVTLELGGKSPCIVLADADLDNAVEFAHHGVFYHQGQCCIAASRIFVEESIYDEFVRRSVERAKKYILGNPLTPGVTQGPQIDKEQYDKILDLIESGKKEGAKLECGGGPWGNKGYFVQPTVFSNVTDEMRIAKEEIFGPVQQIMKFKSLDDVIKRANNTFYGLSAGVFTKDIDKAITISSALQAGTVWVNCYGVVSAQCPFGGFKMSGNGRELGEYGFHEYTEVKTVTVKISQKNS
Put plainly: Cell-based enzyme assay, retinoic acid production in ALDH1A1/H1299 cells. Conditions: cell-based. The procedure: (§1) ALDH1A1 cDNA clone was purchased transfection-ready, and ALDH1A2 full-length cDNA was subcloned into pcDNA3, a mammalian expression vector. ALDH1A1 and ALDH1A2 were transfected into H1299 cells (CRL5803, ATCC) using Lipofectamine 3000 (Invitrogen) following the manufacturer's instructions. Stably transfected cells were selected with G418 (1.2 mg/ml) and referred to as ALDH1A1/H1299 and ALDH1A2/H1299. For the cell-based enzyme assays,
(§2) H1299 cells were routinely grown in RPMI-1640 (ATCC) supplemented with 10% fetal bovine serum (Atlanta Biologicals) in a 37 C, 5% CO2, moisture-saturated atmosphere. H1299, ALDH1A1/H1299 and ALDH1A2/H1299 cells were seeded into 12-well plates (1×10^5 cells/well) and grown for 2 days to confluence. Confluent cells were treated for 20 hours in the above media excluding serum with 2 μM all-trans-retinal, and varying concentrations of inhibitors. Serum-free media was used for the treatment period to avoid retinoic acid in serum. Retinoic acid concentrations were determined from cells and media, and specificity of inhibitors was determined by comparing retinoic acid levels in the presence and absence of the inhibitors in ALDH1A1- vs. ALDH1A2-expressing cells.

In assay [1] the target is T2, ALDH1A2 (Homo sapiens, UniProt O94788).
T2 sequence (O94788 1-518): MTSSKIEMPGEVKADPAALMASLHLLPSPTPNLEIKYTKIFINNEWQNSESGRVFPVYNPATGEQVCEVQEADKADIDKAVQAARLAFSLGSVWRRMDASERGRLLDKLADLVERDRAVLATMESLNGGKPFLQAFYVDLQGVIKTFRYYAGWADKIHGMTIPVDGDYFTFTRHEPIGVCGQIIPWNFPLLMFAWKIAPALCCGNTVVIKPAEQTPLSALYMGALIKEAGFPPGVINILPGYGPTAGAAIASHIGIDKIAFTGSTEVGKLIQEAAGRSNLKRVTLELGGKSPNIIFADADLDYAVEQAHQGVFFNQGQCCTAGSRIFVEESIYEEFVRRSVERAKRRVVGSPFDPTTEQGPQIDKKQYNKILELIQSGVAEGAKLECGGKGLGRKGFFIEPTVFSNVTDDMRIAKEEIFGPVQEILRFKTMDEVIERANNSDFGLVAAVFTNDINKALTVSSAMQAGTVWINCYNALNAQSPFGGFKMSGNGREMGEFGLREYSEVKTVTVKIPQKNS
Put plainly: Cell-based enzyme assay, retinoic acid production in ALDH1A2/H1299 cells. The settings on record: cell-based. On the procedure: as §1, §2

In assay [2] the target is T2, ALDH1A2. In words: Inhibitor screening using purified enzymes: ALDH1A2 activity, retinoic acid production by HPLC (5 uM initial screen, then IC50). It counts as biochemical. The arrangement: histidine-tag (C); made in house; host or cells: bacterial expression (pET28 vector, IPTG induction). Conditions: purified enzyme. The text has this:
(§3) ALDHs were cloned into bacterial expression vector for in vitro enzyme assays and into mammalian expression vectors for cell-based enzyme assays. Human ALDH1A1 cDNA and human ALDH2 cDNA were purchased from OriGene (SC321535) and Open Biosystems (MHS4771-99611182), respectively. and human ALDH1A2 cDNA was cloned from human testis RNA using RT-PCR (Population Division of the Department of Economic and Social Affairs of the United Nations Secretariat. World Population prospects: the 2008 revision. Available at http://www.un.org/esa/population/ (Retrieved Sep. 30, 2011)). For bacterial expression, an open reading frame of ALDH1A1 and ALDH2 were subcloned into the pETite vector (Lucigen) with a 5′ histidine-tag and that of ALDH1A2 into a pET28 vector (Novagen) with a 3′ histidine-tag. Correct frame and sequences were verified through DNA sequencing (UW DNA sequencing facility). ALDHs were induced with 1 mM IPTG and purified using His.Bind resin (Novagen, San Diego, Calif.) and stored in a buffer containing 20 mM Hepes (pH 8), 150 mM KCl and 1 mM EDTA as previously described (Fierce, Y., de Morais Vieira, M., Piantedosi, R., Wyss, A., Blaner, W. S., and Paik, J. (2008) In vitro and in vivo characterization of retinoid synthesis from beta-carotene. Archives of biochemistry and biophysics 472, 126-138).
ALDH1A1 and ALDH1A2 activity was determined as previously reported (Beedle M T, Stevison F, Zhong G, Topping T, Hogarth C, Isoherranen N, Griswold M D. Sources of All-Trans Retinal Oxidation Independent of the Aldehyde Dehydrogenase 1A Isozymes Exist in the Postnatal Testis. Biol Reprod. 2018 Sep. 21. doi: 10.1093/biolre/ioy200). Briefly, purified enzymes were incubated in a buffer containing 10 mM HEPES buffer (pH 8.0), 150 mM potassium chloride and 2 mM EDTA with 2 mM NAD. Retinoic acid production was determined using HPLC as previously reported (Amory J K, Muller C H, Shimshoni A J, Isoherranen N, Paik J, Moreb J S, Amory D W, Evanoff R, Goldstein A S, Griswold M D. Suppression of spermatogenesis by bisdichloroacetyldiamines is mediated by inhibition of testicular retinoic acid biosynthesis. Journal of Andrology 2011; 32(1):111-119). Inhibitors were diluted in DMSO and added to the reactions. […] For initial screening of inhibitors for ALDH1A2, 1 μg ALDH1A2, 5 μM all-trans-retinal and 5 μM inhibitors were incubated for 15 min at 37° C. […] For this purpose, 0.5 μg ALDH1A2 and […] were incubated for 5 minutes at 37° C. with varying concentrations of inhibitors. To determine specificity toward ALDH1A2, the IC50 for […]

In another assay the target is T3, ALDH2 (Homo sapiens, UniProt P05091).
T3 construct: histidine-tag (N); made in house; host or cells: bacterial expression (pETite vector, IPTG induction)
T3 sequence (P05091 18-517): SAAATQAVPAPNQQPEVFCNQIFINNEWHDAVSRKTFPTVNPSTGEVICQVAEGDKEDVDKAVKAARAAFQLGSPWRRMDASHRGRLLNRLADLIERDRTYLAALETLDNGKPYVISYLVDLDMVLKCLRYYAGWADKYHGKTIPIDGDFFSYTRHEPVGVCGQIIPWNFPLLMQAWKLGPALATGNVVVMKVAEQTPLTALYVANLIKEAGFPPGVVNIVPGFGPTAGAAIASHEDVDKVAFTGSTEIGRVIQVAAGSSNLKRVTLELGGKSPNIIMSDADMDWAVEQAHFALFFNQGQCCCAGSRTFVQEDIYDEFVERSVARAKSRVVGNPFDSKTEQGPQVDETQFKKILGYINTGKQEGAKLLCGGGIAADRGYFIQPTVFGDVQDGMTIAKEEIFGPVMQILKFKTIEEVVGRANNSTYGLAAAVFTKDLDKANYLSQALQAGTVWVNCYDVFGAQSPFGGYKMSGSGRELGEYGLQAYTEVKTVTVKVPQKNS
In words: Purified ALDH2 assay with propanal, NADH fluorescence. It counts as biochemical. Conditions: purified enzyme.
Excerpt: as §3, with “126-138). […]” for “126-138).”
For this, 2 μg purified ALDH2, 20 μM propanal and varying concentrations of inhibitors were incubated at room temperature. Enzyme activity was determined by measuring fluorescence of NADH (Ex, 350 nm/Em, 460 nm) using a Victor3 plate reader (PerkinElmer), and initial velocity was calculated from two consecutive readings over 1 minute.

For orientation: EC50 means the concentration that produces a half-maximal response. A low value points to higher potency in that assay. Regarding “2-(Acetyloxy)phenyl 1-(4-fluorophenyl)-3-[4-(methylsulfonyl)phenyl]-1H-pyrazole-4-carboxylate [Compound 293]”, the results for the EC50 on ALDH1A1 and on ALDH1A2 [1] were over 20 µM and 0.07 µM, respectively.
For `O=C(O)c1ccc(-n2cc(C(=O)Nc3ccccc3O)c(-c3ccc(O)cc3)n2)cc1` [Compound 307, 4-{3-(4-Hydroxyphenyl)-4-[(2-hydroxyphenyl)carbamoyl]-1H-pyrazol-1-yl}benzoic acid], in that order: over 20 µM and 0.25 µM.
With `CS(=O)(=O)c1ccc(-c2nn(-c3ccc(C(=O)NO)cc3)cc2C(=O)Nc2cccc(F)c2)cc1` [Compound 284, 1-(4-Hydroxycarbomylphenyl)-3-[4-(methylsulfonyl)phenyl]-N-(3-fluorophenyl)-1H-pyrazole-4-carboxamide], the concentration giving a half-maximal response (EC50) was determined as 1.93 µM at ALDH1A1 and 0.04 µM at ALDH1A2 [1].
As a reminder, the IC50 is the midpoint of a concentration-inhibition curve. A low value points to greater potency. `CS(=O)(=O)c1ccc(-c2nn(-c3ccc(F)cc3)cc2C(=O)Nc2ccccc2O)cc1` [Compound 242, N-(2-Hydroxyphenyl)-3-[4-(methylsulfonyl)phenyl]-1-(4-fluorophenyl)-1H-pyrazole-4-carboxamide] came in with a concentration for a half-maximal effect (EC50) at ALDH1A2 [1] of under 0.5 µM. For the same compound, the IC50 against ALDH1A2 [2] was 0.045 µM; against ALDH2 it was 6.32 µM.
Regarding `COc1cccc(NC(=O)c2cn(-c3ccccc3)nc2-c2ccc([N+](=O)[O-])cc2)c1` [Compound 103, N-(3-Methoxyphenyl)-3-(4-nitrophenyl)-1-phenyl-1H-pyrazole-4-carboxamide], the figures for the IC50 at ALDH1A2 [2] and against ALDH2 were 0.62 µM and 313 µM, respectively.
On to `CS(=O)(=O)c1ccc(-c2nn(-c3cccc(F)c3)cc2C(=O)Nc2ccc(OC(F)(F)F)cc2)cc1` [Compound 246, N-(4-Trifluoromethoxyphenyl)-3-[4-(methylsulfonyl)phenyl]-1-(3-fluorophenyl)-1H-pyrazole-4-carboxamide], for which the results for the 50% inhibitory concentration (IC50) against ALDH1A2 [2] and against ALDH2 were 0.119 µM and 61.2 µM, respectively.
Turning to `CS(=O)(=O)c1ccc(-c2nn(-c3cccc(Cl)c3)cc2C(=O)Nc2ccccc2O)cc1` [Compound 240, N-(2-Hydroxyphenyl)-3-[4-(methylsulfonyl)phenyl]-1-(3-chlorophenyl)-1H-pyrazole-4-carboxamide], the EC50 at ALDH1A2 [1] is under 0.5 µM. Also, the IC50 against ALDH1A2 [2] came out at 0.036 µM; at ALDH2, 14.2 µM.
Consider `CS(=O)(=O)c1ccc(-c2nn(-c3cccc(F)c3)cc2C(=O)Nc2ccccc2O)cc1` [Compound 243, N-(2-Hydroxyphenyl)-3-[4-(methylsulfonyl)phenyl]-1-(3-fluorophenyl)-1H-pyrazole-4-carboxamide], for which the half-maximal inhibitory concentration (IC50) on ALDH1A2 [2] worked out at 0.076 µM; against ALDH2, 62 µM.
As to `O=C(Nc1cccc(O)c1)c1cn(-c2ccccc2)nc1-c1ccc([N+](=O)[O-])cc1` [Compound 166, N-(3-Hydroxyphenyl)-3-(4-nitrophenyl)-1-phenyl-1H-pyrazole-4-carboxamide], the IC50 was 0.779 µM at ALDH1A2 [2] and 95.2 µM at ALDH2.
For `O=C(c1ccc(O)s1)N1CCN(c2ccc([N+](=O)[O-])c(N3CCCC3)c2)CC1` [Compound 335], the values for the 50% inhibitory concentration (IC50) on ALDH1A2 [2] and at ALDH2 were 0.342 µM and 2.07 µM, respectively.
Consider `Nc1cccc(NC(=O)c2cn(-c3ccccc3)nc2-c2ccc([N+](=O)[O-])cc2)c1` [Compound 173, N-(3-Aminophenyl)-3-(4-nitrophenyl)-1-phenyl-1H-pyrazole-4-carboxamide], for which the IC50 at ALDH1A2 [2] was determined as 0.383 µM; on ALDH2 it was 73.7 µM.
